Results as given in US5641762A, “Bone targeted inhibitors of carbonic anhydrase” (Research Corporation Technologies, Inc., priority 1994, dated 1997).
Converted amounts (≈) assume the structure as drawn. Where two headings read alike, the source gives them in different places.

Columns and labels:
carbonic anhydrase = assay: Carbonic anhydrase inhibition (modified micromethod, CO2/bicarbonate colour change time); format: biochemical; settings: for carbonic anhydrase inhibition: before hydrolysis, final assay concentration 5×10^-6 M (FIG. 2); for Potency as CA inhibitor: relative to acetazolamide = 100, Table 5
Experimental: B--Carbonic Anhydrase Inhibition
A modification of the micromethod of Maven, J. Pharmacol. Exp. Ther. 130: 26-29 (1960) was used to assess carbonic anhydrase activity and inhibition. In essence, a bicarbonate solution was incubated at 0° C. in a vessel which was constantly bubbled with CO2. A pH indicator (phensulfophthalein) was included. The dependent variable was the amount of time required to achieve color change (addition of bicarbonate is defined as time zero). Addition of carbonic anhydase decreased reaction time. Further addition of enzyme inhibitors extended reaction time back to control values.
All are tested before and after being subjected to hydrolyric conditions with the final assay concentration being 5×10^-6 M. For these experiments, the dependent variable was the amount of time required for acidification of a CO2 /bicarbonate buffer system to a defined endpoint. […] Finally, test drugs were added to enzyme-containing reaction mixtures, and any increase in reaction time was indicative of enzyme inhibition.

[1] = tested on: PTH-induced bone resorption; settings: literature (Waite et al. 1970); cited from earlier work
[2] = kidney intact animals; cited from earlier work
[3] = tested on: PTH-induced resorption of bone in culture; settings: cited from earlier work
[4] = tested on: rat calvaria (PTH-stimulated calcium release); assay: In vitro bone organ culture, PTH-stimulated calcium release from calvaria; format: cell-based; settings: for PTH-stimulated calcium release from calvaria: 10^-5 M (FIG. 3)
Experimental: Essentially, fetal or neonatal rat calvaria were excised and cultured in serum supplemented BGJb medium (GIBCO) containing HEPES buffer (hydroxyethylpiperazine-ethanesulfonate), penicillin and streptomycin. Bone samples were individually incubated in sterile multi-well plates at 37° C./100% relative humidity/95:5 air:CO2. If appropriate, bone may be radiolabeled by injection of mothers with ^45 CACl2 or pups with tritiated proline.
1. In vitro inhibition of bone resorption. Rat calvaria were cultured as described. Some cultures include the addition of parathyroid hormone (PTH) in the presence and absence of test compounds (10^-5 M).

[5] = Binding to hydroxyapatite; settings: for bound to hydroxyapatite: 10^-5 M, 30 minute incubation (FIG. 1)
Experimental: A--Binding to Hydroxyapatite
For these studies, 10^-5 M aqueous solutions of the various test agents were added to a slurry of hydroxyapatite (HA), the principle mineral constituent of bone. After a 30 minute incubation, HA was separated by centrifugation and treated with 1.0M phosphate buffer (pH=7) or 2.0M phosphate buffer (pH=7). Percentage of total drug bound and eluted was determined using UV-visible spectrophotometry.
1. Binding to hydroxyapatite.

[6] = cited from earlier work; for acidosis: systemic / metabolic acidosis
[7] = tested on: PTH-induced bone resorption; assay: In vivo Induced Secondary Hyperparathyroid Rat (ISHR); settings: for Blood Calcium: i.p. 24 h before nephrectomy, bled 4 h post nephrectomy, control 12.2 ± 0.4, prenephrectomy 10.1 ± 0.3, ** P ≤ 0.05, preliminary; for effect on developing hypercalcemia: given 24 hours prior to nephrectomy
Experimental: 1. The Induced Secondary Hyperparathyroid Rat
In order to test the biological activity of these substances, test compounds were injected intraperitoneally into 100 gram female rats. Twenty-four hours later the animals were subjected to bilateral nephrectomy. Animals were bled 4 hours post nephrectomy. […] The resulting decline in the concentration of ionized calcium in the blood served as a stimulus for the release of PTH. In animals with functional parathyroid glands, a secondary hyperparathyroidism developed with an ensuing hypercalcemia due to PTH-induced bone resorption. Agents which inhibited bone resorption attenuate this hypercalcemic response.

Solubility pH 7.6 = format: physicochemical
[8] = tested on: response to PTH (plasma calcium); settings: ISHR without parathyroids; cited from earlier work
physchem = settings: for chromatographic logP: reverse phase hplc lc-18-db, pH 2
Experimental: Chromatographic characterization was accomplished using hydroxyapetite (HA) chromatography, silica gel thin layer chromatography and high performance reverse phase liquid chromatography (HPLC) with the following characteristics:
Column: LC-18-DB (Supelco)/25 cm/5 um particles.
Mobile phase: 9% tetrahydrofuran/9% CH3 CN/1% CH3 OH/81% 5 mM sodium phosphate, pH=2
Detection: UV-visible absorbance 210-500 nm (photo-diode array scanning)
This mode of analysis served simultaneously as a qualitative analytic procedure (full UV-vis spectrum) as well as providing a quantitative estimate of drug concentration.
Chromatographic data was obtained using the HPLC system described.

[9] = pH 7.6
[10] = tested on: PTH-stimulated calcium release from bone; assay: In vivo classical endocrine ablation/replacement model (PTH given to parathyroidectomized rats); design: species or system rat; settings: PTH group
Experimental: Parathyroid hormone was administered to parathyroidectomized rats who received no food for 12 hours before PTH injection, to minimize gut calcium absorption. In an attempt to attenuate the developing increase in plasma calcium, drug was administered 24 hours prior to PTH injection.
Parathyroid hormone was administered to parathyroidectomized rats who had received no food for 12 hours before PTH injection, to minimize gut calcium absorption.

## CC(=O)Nc1nnc(S(N)(=O)=O)s1 [acetazolamide]
Carbonic anhydrase
  carbonic anhydrase inhibition: inhibits carbonic anhydrase activity
  Potency as CA inhibitor: 100%
[1]
  inhibition of the increase in total plasma calcium in ISHR: completely inhibits this response
[2]
  half-life: approximately 50 minutes
[3]; tissue culture (Minkin and Jennings)
  inhibition of PTH-induced resorption: inhibition of PTH-induced resorption
[4]
  PTH-stimulated calcium release from calvaria: inhibited
[5]
  bound to hydroxyapatite: 19%
[6]; normal animals
  change in plasma calcium concentration: no change in plasma calcium concentration is observed
[6]
  acidosis: causes a systemic acidosis
[6]; listed as Acetazolamide
  acidosis: produces a metabolic acidosis
[7]; 0.2 mol/kg as printed
  Blood Calcium: 12.6 ± 0.2 mg/dL
[7]
  effect on developing hypercalcemia: not effective
Solubility pH 7.6
  solubility: 6.7 mM (≈ 1490 µg/mL)
[8]
  inhibition of response to administered PTH: abolish it

## Nc1nnc(S(N)(=O)=O)s1 [WP-061786, 2-amino-1,3,4-thiadiazole-5-sulfonamide]
Carbonic anhydrase
  Potency as CA inhibitor: 20%
physchem
  chromatographic logP: -0.409
[5]
  % Bound to Hydroxyapatite: 0%
[9]
  ether:buffer partition coefficient: 0.15
Solubility pH 7.6
  solubility: 28.4 mM (≈ 5120 µg/mL)

## CN(C)C1C(=O)C(C(N)=O)=C(O)C2(O)C(=O)C3=C(O)c4c(O)cccc4C(C)(O)C3CC12 (stereo not shown) [tetracycline]
Carbonic anhydrase
  carbonic anhydrase inhibition: without effect
[3]; at high concentrations
  inhibition of PTH in vitro: typically inhibits PTH in vitro
[4]
  PTH-stimulated calcium release from calvaria: without effect
[5]
  bound to hydroxyapatite: 90%
[5]; Table 6
  % Bound to Hydroxyapatite: 85%
[5]; result in words, sodium phosphate buffer, pH 7
  binding to / elution from hydroxyapatite: eluted with 1.0M sodium phosphate
[7]
  effect on developing hypercalcemia: does not appear to be effective
  Blood Calcium: 11.8 ± 0.4 mg/dL

## CCOC(=O)CCCCC(=O)NS(=O)(=O)c1nnc(NC(C)=O)s1 [AAOEt, acetazolamide-adipate-ethyl ester]
Carbonic anhydrase; following incubation under hydrolytic conditions, 5×10^-6 M (FIG. 2)
  carbonic anhydrase inhibition after hydrolytic conditions: inhibited carbonic anhydrase activity
physchem; HPLC
  lipophilicity relative to parent compounds: more lipophilic than is its parent, acetazolamide
physchem
  chromatographic logP: 0.238
[5]
  bound to hydroxyapatite: 3%

## NS(=O)(=O)c1nnc(NC(=O)CCC(=O)NCCCCCC(O)(P(=O)(O)O)P(=O)(O)O)s1 [PAA]
Carbonic anhydrase; read-out: KI as carbonic anhydrase inhibitor
  Ki: 120 nM
physchem
  water solubility relative to parent thiadiazolesulfonamide: more water soluble than the parent thiadiazolesulfonamide

## CN(C)C1C(=O)C(C(N)=O)=C(O)C2(O)C(=O)C3=C(O)c4c(OC(CO)COC(=O)Oc5ccc6nc(S(N)(=O)=O)sc6c5)cccc4C(C)(O)C3CC12 (stereo not shown) [TAE-2]
[4]; calvaria in culture (FIGS. 8-10)
  PTH-stimulated bone resorption / calcium release: attenuates PTH stimulated calcium release from calvaria in culture (FIG. 9) in a concentration dependent fashion

B1: PTH: parathyroid hormone (protein, UniProt P01270 32-115, looked up)
Parathyroid hormone: SVSEIQLMHNLGKHLNSMERVEWLRKKLQDVHNFVALGAPLAPRDAGSQRPRKKEDNVLVESHEKSLGEADKADVNVLTKAKSQ
modifications: Parathyroid hormone
[10]
  Blood Calcium, Before PTH: 5.2 ± 0.3 mg/dL
[10]; control 5.5 ± 0.2, ** p < 0.05 vs control
  Blood Calcium, 6 hours post-treatment: 7.2 ± 0.2 mg/dL
[4]; treatment with PTH
  net release of calcium from cultured bone: significant stimulation
